In US11185531B2, “Arginine methyltransferase inhibitors and uses thereof” (Epizyme, Inc., priority 2013, dated 2021) one finds IC50 data, which are given here for 39 compounds.

SMILES strings stand for the structures. Some results are limits rather than exact numbers.

The target in the test is T1, human PRMT6 (Homo sapiens, UniProt Q96LA8).
T1 construct: Flag-PRMT6-His was eluted with 200 ug/ml FLAG peptide in the same buffer; made in house; host or cells: HEK 293F cells (BacMam baculovirus, pFastBacMam)
T1 sequence (Q96LA8 with tags, fused parts or gaps): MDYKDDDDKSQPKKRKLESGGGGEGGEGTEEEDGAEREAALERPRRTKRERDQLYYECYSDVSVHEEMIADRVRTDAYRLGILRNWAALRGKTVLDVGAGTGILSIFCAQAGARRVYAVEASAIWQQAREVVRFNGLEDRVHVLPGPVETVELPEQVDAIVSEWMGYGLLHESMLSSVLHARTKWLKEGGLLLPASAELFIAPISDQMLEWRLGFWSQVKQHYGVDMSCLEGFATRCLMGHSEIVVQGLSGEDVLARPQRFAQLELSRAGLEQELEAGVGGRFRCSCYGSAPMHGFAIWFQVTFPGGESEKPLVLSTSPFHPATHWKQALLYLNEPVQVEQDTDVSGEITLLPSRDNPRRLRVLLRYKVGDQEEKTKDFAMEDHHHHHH
Briefly: PRMT6 Biochemical Assay (3H-SAM Flashplate, peptide substrate). The note with it: 30 min preincubation. The text has this:
Peptide representative of human histone H4 residues 36-50 was synthesized with an N-terminal linker-affinity tag motif and a C-terminal amide cap by 21st Century Biochemicals. The peptide was purified by high-performance liquid chromatography (HPLC) to greater than 95% purity and confirmed by liquid chromatography mass spectrometry (LC-MS). The sequence was Biot-Ahx-[…]-amide and contained a monomethylated lysine at position 44 (SEQ ID NO:5).
Full-length human PRMT6 (NM_018137.2) transcript clone was amplified from an HEK 293 cDNA library, incorporating a flanking 5′ sequence encoding a FLAG tag ([…]) (SEQ ID NO:6) fused directly to Ser 2 of PRMT6 and a 3′ sequence encoding a hexa His sequence (HHHHHH) fused directly to Asp 375. The amplified gene was subcloned into pFastBacMam (Viva Biotech).
Column was washed with 20 mM imidazole in the same buffer and Flag-PRMT6-His was eluted with 150 mM imidazole. Pooled fractions were dialysed against buffer Ni-A and further purified by anti-flag M2 affinity chromatography. Flag-PRMT6-His was eluted with 200 ug/ml FLAG peptide in the same buffer. Pooled fractions were dialysed in 20 mM Tris, 150 mM NaCl, 10% glycerol and 5 mM 3-mercaptoethanol, pH 7.8. The purity of recovered protein was 95%.
General Procedure for PRMT6 Enzyme Assays on Peptide Substrates.
The assays were all performed in a buffer consisting of 20 mM Bicine (pH=7.6), 1 mM TCEP, 0.005% BSG, and 0.002% Tween 20, prepared on the day of use. Compounds in 100% DMSO (1 ul) were spotted into a polypropylene 384-well V-bottom plates (Greiner) using a Platemate Plus outfitted with a 384-channel head (Thermo Scientific). DMSO (1 ul) was added to Columns 11, 12, 23, 24, rows A-H for the maximum signal control and 1 ul of SAH, a known product and inhibitor of PRMT6, was added to columns 11, 12, 23, 24, rows I-P for the minimum signal control. A cocktail (40 ul) containing the PRMT6 enzyme was added by Multidrop Combi (Thermo-Fisher). The compounds were allowed to incubate with PRMT6 for 30 min at room temperature, then a cocktail (10 ul) containing SAM and peptide was added to initiate the reaction (final volume=51 ul). The final concentrations of the components were as follows: PRMT6 was 1 nM, ^3H-SAM was 200 nM, non-radiolabeled SAM was 250 nM, peptide was 75 nM, SAH in the minimum signal control wells was 1 mM, and the DMSO concentration was 2%. The assays were stopped by the addition of non-radiolabeled SAM (10 ul) to a final concentration of 400 uM, which dilutes the ^3H-SAM to a level where its incorporation into the peptide substrate is no longer detectable. 50 ul of the reaction in the 384-well polypropylene plate was then transferred to a 384-well Flashplate and the biotinylated peptides were allowed to bind to the streptavidin surface for at least 1 hour before being washed once with 0.1% Tween20 in a Biotek ELx405 plate washer. The plates were then read in a PerkinElmer TopCount plate reader to measure the quantity of ^3H-labeled peptide bound to the Flashplate surface, measured as disintegrations per minute (dpm) or alternatively, referred to as counts per minute (cpm).
Where dpm=disintegrations per minute, cmpd=signal in assay well, and min and max are the respective minimum and maximum signal controls.
Where top and bottom are the normally allowed to float, but may be fixed at 100 or 0 respectively in a 3-parameter fit. The Hill Coefficient normally allowed to float but may also be fixed at 1 in a 3-parameter fit. Y is the % inhibition and X is the compound concentration.
Consider `CNCCN(C)Cc1c[nH]nc1C#Cc1cccc(OC)c1` [Compound 1], for which the IC50 (commonly the point on the concentration scale where inhibition reaches its midpoint) was less than 100 nM.

Regarding `CNCCN(C)Cc1c[nH]nc1C#Cc1ccc(C(C)(C)C)cc1` [Compound 2], the IC50 is less than 100 nM.

In the case of `CNCCN(C)Cc1c[nH]nc1C#Cc1ccccc1` [Compound 3], the IC50 is less than 100 nM.

Compound `CNCCN(C)Cc1c[nH]nc1C#Cc1ccc(F)cc1` [Compound 4] gave a half-inhibitory concentration (IC50) of less than 100 nM.

Turning to `CNCCN(C)Cc1c[nH]nc1/C=C/c1ccc(-c2ccccc2)cc1` [Compound 5], the IC50 was less than 100 nM.

`CNCCN(C)Cc1c[nH]nc1/C=C/c1ccc(C(F)(F)F)cc1` [Compound 6] showed an IC50 of less than 100 nM.

On to `CNCCN(C)Cc1c[nH]nc1/C=C/c1ccc(OC)cc1` [Compound 7], for which the concentration for half-maximal inhibition (IC50) was less than 100 nM.

Consider `Cc1ccc(/C=C/c2n[nH]cc2CN(C)CCN)cc1` [Compound 8], for which the IC50 is less than 100 nM.

As for `CN(CCN)Cc1c[nH]nc1C1=CCOCC1` [Compound 10], the IC50 is 101 to 1000 nM.

Regarding `COc1cc(/C=C/c2n[nH]cc2CN(C)CCN)cc(OC)c1` [Compound 11], the IC50 was less than 100 nM.

In the case of `CN(CCN)Cc1c[nH]nc1/C=C/c1ccc(F)cc1F` [Compound 13], the half-inhibitory concentration (IC50) was less than 100 nM.

In the case of `CN(CCN)Cc1c[nH]nc1/C=C/c1cc(C(F)(F)F)cc(C(F)(F)F)c1` [Compound 14], the IC50 was 101 to 1000 nM.

Compound `CN(CCN)Cc1c[nH]nc1/C=C/c1cc(F)cc(F)c1` [Compound 15] registered a 50% inhibitory concentration (IC50) of less than 100 nM.

For `CN(CCN)Cc1c[nH]nc1/C=C/c1cccc(C(F)(F)F)c1` [Compound 16], the half-inhibitory concentration (IC50) lay within 101 to 1000 nM.

Regarding `COc1cccc(/C=C/c2n[nH]cc2CN(C)CCN)c1` [Compound 17], the half-inhibitory concentration (IC50) is less than 100 nM.

`CN(CCN)Cc1c[nH]nc1/C=C/c1ccc(C(F)(F)F)cc1` [Compound 18] showed a half-inhibitory concentration (IC50) of less than 100 nM.

`COC/C=C/c1n[nH]cc1CN(C)CCN` [Compound 19]: the concentration for half-maximal inhibition (IC50) lay in the range of 101 to 1000 nM.

Take `CN(CCN)Cc1c[nH]nc1/C=C/c1cccc(F)c1` [Compound 20]: the IC50 was less than 100 nM.

As for `CC(C)c1n[nH]cc1CN(C)CCN` [Compound 21], the 50% inhibitory concentration (IC50) was in the range of 101 to 1000 nM.

Compound `CN(CCN)Cc1c[nH]nc1C1CCCCC1` [Compound 22] registered a half-inhibitory concentration (IC50) of less than 100 nM.

Compound `CN(CCN)Cc1c[nH]nc1CCc1ccc(F)cc1` [Compound 23, N^1-((3-(4-fluorophenethyl)-1H-pyrazol-4-yl)methyl)-N^1-methylethane-1,2-diamine] displayed a half-maximal inhibitory concentration (IC50) of less than 100 nM.

In turn, `CN(CCN)Cc1c[nH]nc1/C=C/Cc1ccccc1` [Compound 24] came in with an IC50 of 101 to 1000 nM.

In turn, `CN(CCN)Cc1c[nH]nc1C1=CCCC1` [Compound 25] yielded a half-inhibitory concentration (IC50) of 101 to 1000 nM.

The compound `CN(CCN)Cc1c[nH]nc1C1CCC1` [Compound 26] showed a half-inhibitory concentration (IC50) of 101 to 1000 nM.

`CC(C)Cc1n[nH]cc1CN(C)CCN` [Compound 28, N^1-((3-iso-butyl-1H-pyrazol-4-yl)methyl)-N^1-methylethane-1,2-diamine] displayed a 50% inhibitory concentration (IC50) of less than 100 nM.

As for `CCCc1n[nH]cc1CN(C)CCN` [Compound 29], the IC50 lay in the range of 101 to 1000 nM.

Regarding `Cc1n[nH]cc1CN(C)CCN` [Compound 30], the concentration for half-maximal inhibition (IC50) lay within 101 to 1000 nM.

Regarding `CN(CCN)Cc1c[nH]nc1C1CCCC1` [Compound 31], the half-maximal inhibitory concentration (IC50) was in the range of 3010 to 10000 nM.

The compound `CNCCN(C)Cc1c[nH]nc1C1CCN(C(=O)Cc2ccccc2)CC1` [Compound 32] came in with an IC50 of less than 100 nM.

As to `CN(CCN)Cc1n[nH]cc1C1CCCCC1` [Compound 33], the IC50 was less than 100 nM.

The compound `CNCCN(C)Cc1c[nH]nc1C1CCN(C(=O)C(C)C)CC1` [Compound 34] registered a concentration for half-maximal inhibition (IC50) of less than 100 nM.

The compound `CC1CCC(c2c[nH]nc2CN(C)CCN)CC1` (stereo not drawn) [Compound 35] displayed an IC50 of less than 100 nM.

With `CN(CCN)Cc1n[nH]cc1C1CCC(C)(C)CC1` [Compound 36], the IC50 was less than 100 nM.

Take `CC1CCC(c2n[nH]cc2CN(C)CCN)CC1` (stereo not drawn) [Compound 37, N^1-methyl-N^1-((3-(4-methylcyclohexyl)-1H-pyrazol-4-yl)methyl)ethane-1,2-diamine]: the IC50 is less than 100 nM.

As for `CN(CCN)Cc1c[nH]nc1C1CCC(C)(C)CC1` [Compound 38, N^1-((3-(4,4-dimethylcyclohexyl)-1H-pyrazol-4-yl)methyl)-N^1-methylethane-1,2-diamine], the half-inhibitory concentration (IC50) is less than 100 nM.

`CNCCN(C)Cc1c[nH]nc1C1CCN(CC(C)C)CC1` [Compound 39, N^1-((3-(1-isobutylpiperidin-4-yl)-1H-pyrazol-4-yl)methyl)-N^1,N^2-dimethylethane-1,2-diamine]: the half-inhibitory concentration (IC50) is less than 100 nM.

`CNCCN(C)Cc1c[nH]nc1C1CCN(C)CC1` [Compound 41] yielded an IC50 of less than 100 nM.

For `CNCCN(C)Cc1c[nH]nc1C1CCNCC1` [Compound 42], the IC50 was less than 100 nM.

`CN(CCN)Cc1n[nH]cc1C1CCC(N2CCOCC2)CC1` (stereo not drawn) [Compound 44, N^1-methyl-N^1-((4-(4-morpholinocyclohexyl)-1H-pyrazol-3-yl)methyl)ethane-1,2-diamine] yielded an IC50 of 101 to 1000 nM.
